Measured values: patent US20260055061A1, “HALOPHTHALIMIDE COMPOUNDS AND METHODS OF USE AGAINST TBI, INFLAMMATORY DISORDER, AUTOIMMUNE DISORDER, NEURODEGENERATIVE DISEASE OR VIRAL INFECTION” (The United States of America, as represented by the …, priority 2022, published 2026)

Columns and labels:
[1] = test system: CCI-induced TBI mice; assay: CCI mouse model of TBI: brain lesion and lateral ventricle size (Giemsa); assay type: in vivo
Description: (§1) In vivo model of TBI: Mice were anesthetized with 2.5% tribromoethanol (Avertin: 250 mg/kg; Sigma, St. Louis, MO, USA) and placed in a stereotaxic frame (Kopf Instruments, Tujunga, CA, USA). A 4 mm craniotomy was performed using sterile procedures; the craniotomy point was selected midway between the lambda and bregma sutures and laterally midway between the central suture and the temporalis muscle. The skull fragment was then carefully removed without disruption of the underlying dura. Prior to injury induction, the tip of the impactor was angled and kept perpendicular to the exposed cortical surface. The mouse CCI instrument consisted of an electromagnetic impactor, Impact One (Leica Biosystems Inc., Buffalo Grove, IL, USA) that allows independent alteration of injury severity by controlling contact velocity and the level of cortical deformation. In these experiments, the contact velocity was set at 5.0 m/sec, the dwell time was set at 0.2 s and the deformation depth was set at 2 mm to produce a moderate TBI. The injury site was allowed to dry prior to suturing the wound. During surgery and recovery, the body temperature of the animals was maintained at 36-37° C. by using a heating pad. […] Mice were randomized following CCI to treatment with either of two doses of TFBP (16.25 mg/kg and 32.5 mg/kg, i.p.) or saline, and were dosed at 1 and 24 hr after the injury.
Tissue processing: Two weeks after injury, mice were deeply anesthetized with isoflurane and perfused transcardially with 30 ml phosphate buffered saline (PBS). After removal, the brain was post-fixed with 4% PFA overnight then transferred to a 30% sucrose solution in PBS. […]
Quantification of brain lesion and lateral ventricle size in TBI animals: One set of brain sections 2-weeks post-CCI were mounted on slides. […] Brain image regions were quantified using ImageJ 1.52q software (National Institutes of Health, Bethesda, MD). […] There were 9 brain sections from each mouse counted by blinded observers, with regions starting from bregma at 0.86 to −1.46 mm.
In Vivo Model of TBI: TBI studies were conducted in 8-week-old male C57/BL6 mice (25-30 g; n=20), Jackson Laboratory, Bar Harbor, Maine USA. Mice were randomly assigned to four groups prior surgery, CMC+Sham, CMC+TBI, compound 30 (Low dose (LD), 14.78 mg/kg, prepared in 1% CMC in PBS)+TBI, compound 30 (High dose (HD), 29.57 mg/kg)+TBI, and evaluated the effects of compound 30 on TBI. Mice were assessed for gait function and motor coordination, balance function. Animals were subsequently evaluated for cellular changes using histological and immunohistochemistry staining. […]

[2] = test system: CCI-induced TBI mice; assay: Controlled cortical impact (CCI) mouse model of TBI: beam walking test; assay type: in vivo; settings: for beam walking test average transit time / beam walking test immobility time: 1 week after CCI
Description: as §1
Behavioral assessment for motor functions and coordination: Behavioral tests were performed 1 week and 2 weeks after injury, to assess changes in motor functions and coordination. All tests were performed during the animals' light phase; cages were transported to testing rooms at least 30 min prior to testing.
Beam Walking Test (BWT): A BWT was used to assess CCI-induced deficits in fine motor coordination. Mice have a preference for a darkened enclosed environment, as compared to an open illuminated one. Each animal was placed in darkened goal box for a 2 min habituation and then the trial began from the other (light) end of the beam. The beam was constructed with the following dimensions: 1.2 cm (width)×91 cm (length). The time taken for each animal to traverse the beam to reach the dark goal box and the immobility time spent between the moment when they were initially placed in the beam and when they started walking were documented. Five trials were recorded for each animal before CCI and at 1 and 2 weeks after CCI. The mean times to traverse the beam and the immobility times were calculated, and a plot was generated to evaluate treatment effects; these times were then used for statistical analysis.
In Vivo Model of TBI: TBI studies were conducted in 8-week-old male C57/BL6 mice (25-30 g; n=20), Jackson Laboratory, Bar Harbor, Maine USA. Mice were randomly assigned to four groups prior surgery, CMC+Sham, CMC+TBI, compound 30 (Low dose (LD), 14.78 mg/kg, prepared in 1% CMC in PBS)+TBI, compound 30 (High dose (HD), 29.57 mg/kg)+TBI, and evaluated the effects of compound 30 on TBI. Mice were assessed for gait function and motor coordination, balance function. Animals were subsequently evaluated for cellular changes using histological and immunohistochemistry staining.
Mice were anesthetized with 2.5% tribromoethanol (Avertin: 250 mg/kg; Sigma, St. Louis, MO, USA)) and placed in a mouse stereotaxic frame (Kopf Instruments, Tujunga, CA, USA) and fixed by ear bars and incisor bar. Under sterile procedures, the skin was retracted and a 5-mm square craniectomy was executed over right motor cortex at the posterior corner between the bregma and sagittal sutures. The skull was carefully removed by a drill to avoid damaging the dura underneath. The process of craniectomy proceeded without having the temporalis muscle impaired. The CCI device, Impact One (Leica Biosystems Inc., Buffalo Grove, IL, USA), consists of an electromagnetic impactor that allows alteration of injury severity by controlling contact velocity and the depth of cortical deformation independently. […]

[3] = molecular target: cereblon (CRBN/DDB1-CUL4A-Rbx1 complex) / BRD3 (Homo sapiens (Human), UniProt Q96SW2); assay: Cereblon/BRD3 binding assay (AlphaScreen / FRET); settings: for IC50: Example 5, FIG. 20A; for cereblon binding (in words): cereblon/BRD3 binding FRET assay
Description: After 30 min of incubation with shaking at room temperature, AlphaLISA anti-FLAG Acceptor and Alpha Glutathione Donor beads (PerkinElmer) were sequentially added and then incubated for 1 hr at room temperature for each of the added chemicals. Alpha counts were thereafter read on a Synergy Neo2 (BioTek) for the analysis. Relative activity or inhibition was calculated as the highest value, which was set to 100%, and the lowest value was set to 0% after subtraction of the “blank value” from all readings.
After 30 min of incubation with shaking at room temperature, AlphaLISA anti-FLAG Acceptor and Alpha Glutathione Donor beads (PerkinElmer) were sequentially added and then incubated for 1 h at room temperature for each of the added chemicals. Alpha counts were thereafter read on a Synergy Neo2 (BioTek) for the analysis. The relative activity of the alpha signal was calculated after subtraction of the “blank value” from all readings, and the value of the vehicle group was then set as 100%.

[4] = test system: IFN-γ; assay: LPS model of inflammation in rats: IFN-γ in plasma and cortex; assay type: in vivo, rat; settings: LPS-challenged rats; for IFN-γ in plasma (in words): low and high dose

Sequence of cereblon (CRBN/DDB1-CUL4A-Rbx1 complex) / BRD3 (Q96SW2 whole entry): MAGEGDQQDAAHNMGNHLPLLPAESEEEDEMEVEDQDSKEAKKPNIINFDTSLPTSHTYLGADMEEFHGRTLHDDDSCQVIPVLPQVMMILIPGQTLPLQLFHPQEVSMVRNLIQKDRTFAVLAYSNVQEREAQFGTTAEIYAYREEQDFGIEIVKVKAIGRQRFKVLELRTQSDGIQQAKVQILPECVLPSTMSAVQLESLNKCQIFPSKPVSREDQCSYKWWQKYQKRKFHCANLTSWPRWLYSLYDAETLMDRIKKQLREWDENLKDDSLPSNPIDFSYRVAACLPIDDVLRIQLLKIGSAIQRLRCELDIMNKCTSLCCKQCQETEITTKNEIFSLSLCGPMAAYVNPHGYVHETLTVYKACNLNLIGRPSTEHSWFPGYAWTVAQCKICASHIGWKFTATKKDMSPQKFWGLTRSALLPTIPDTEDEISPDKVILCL
Sequence of cereblon (CRBN/DDB1-CUL4A-Rbx1 complex) / BRD3 (Q16531 whole entry partner): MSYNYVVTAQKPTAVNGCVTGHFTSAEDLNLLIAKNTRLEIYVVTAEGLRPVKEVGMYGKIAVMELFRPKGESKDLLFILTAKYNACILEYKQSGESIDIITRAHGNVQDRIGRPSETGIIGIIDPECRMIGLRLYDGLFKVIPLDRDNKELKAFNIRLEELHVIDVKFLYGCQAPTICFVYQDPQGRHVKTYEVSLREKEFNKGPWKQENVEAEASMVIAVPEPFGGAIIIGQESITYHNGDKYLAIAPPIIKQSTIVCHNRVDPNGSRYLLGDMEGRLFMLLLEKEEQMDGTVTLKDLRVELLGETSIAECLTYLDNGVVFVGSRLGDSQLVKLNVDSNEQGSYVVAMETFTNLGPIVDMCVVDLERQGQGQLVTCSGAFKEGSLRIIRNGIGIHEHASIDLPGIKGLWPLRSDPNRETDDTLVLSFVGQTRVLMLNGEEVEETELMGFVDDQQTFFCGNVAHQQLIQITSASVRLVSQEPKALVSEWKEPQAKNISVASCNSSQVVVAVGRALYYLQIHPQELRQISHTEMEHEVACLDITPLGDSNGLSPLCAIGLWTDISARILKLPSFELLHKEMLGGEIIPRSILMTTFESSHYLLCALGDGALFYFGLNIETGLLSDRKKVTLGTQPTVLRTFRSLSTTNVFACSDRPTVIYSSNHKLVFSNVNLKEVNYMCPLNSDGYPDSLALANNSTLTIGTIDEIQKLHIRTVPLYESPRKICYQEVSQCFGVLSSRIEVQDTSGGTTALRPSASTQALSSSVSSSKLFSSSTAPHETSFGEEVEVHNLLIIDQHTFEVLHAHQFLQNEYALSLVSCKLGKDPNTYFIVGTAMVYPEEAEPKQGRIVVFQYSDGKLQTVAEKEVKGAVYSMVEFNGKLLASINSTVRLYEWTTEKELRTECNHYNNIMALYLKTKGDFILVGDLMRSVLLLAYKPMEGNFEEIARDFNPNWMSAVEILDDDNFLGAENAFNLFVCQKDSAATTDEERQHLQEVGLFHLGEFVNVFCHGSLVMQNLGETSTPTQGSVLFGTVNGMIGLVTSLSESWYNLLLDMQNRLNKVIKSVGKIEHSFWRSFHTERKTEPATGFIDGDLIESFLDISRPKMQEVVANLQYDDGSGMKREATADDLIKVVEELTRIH
Sequence of cereblon (CRBN/DDB1-CUL4A-Rbx1 complex) / BRD3 (Q13619 whole entry partner): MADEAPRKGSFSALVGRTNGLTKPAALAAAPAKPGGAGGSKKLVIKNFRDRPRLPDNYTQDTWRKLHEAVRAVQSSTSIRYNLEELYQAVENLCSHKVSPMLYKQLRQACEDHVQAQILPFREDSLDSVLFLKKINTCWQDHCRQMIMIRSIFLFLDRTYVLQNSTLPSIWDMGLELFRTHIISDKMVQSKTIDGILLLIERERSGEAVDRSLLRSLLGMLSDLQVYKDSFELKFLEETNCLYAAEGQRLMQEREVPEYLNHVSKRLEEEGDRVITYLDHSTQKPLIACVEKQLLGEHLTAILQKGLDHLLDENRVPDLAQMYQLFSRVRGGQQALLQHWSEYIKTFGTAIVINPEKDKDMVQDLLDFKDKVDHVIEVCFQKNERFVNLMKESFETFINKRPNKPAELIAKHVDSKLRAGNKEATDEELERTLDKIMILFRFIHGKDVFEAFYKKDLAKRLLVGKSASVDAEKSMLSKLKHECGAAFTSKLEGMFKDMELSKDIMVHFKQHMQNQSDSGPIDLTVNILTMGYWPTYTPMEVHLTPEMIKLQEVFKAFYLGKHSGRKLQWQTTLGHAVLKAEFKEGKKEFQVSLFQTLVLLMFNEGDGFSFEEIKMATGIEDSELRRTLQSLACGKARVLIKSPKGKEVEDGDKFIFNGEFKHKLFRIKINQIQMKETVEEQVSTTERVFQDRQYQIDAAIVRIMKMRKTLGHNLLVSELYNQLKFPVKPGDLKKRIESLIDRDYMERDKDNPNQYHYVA
Sequence of cereblon (CRBN/DDB1-CUL4A-Rbx1 complex) / BRD3 (P62877 whole entry partner): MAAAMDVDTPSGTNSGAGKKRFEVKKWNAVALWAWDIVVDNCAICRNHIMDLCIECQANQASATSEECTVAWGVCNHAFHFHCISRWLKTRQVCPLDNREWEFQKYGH

Row | SMILES | lateral ventricle size ([1]; both doses, 2 weeks after TBI) | loss of cortical tissue (lesion volume) ([1]; higher dose 32.5 mg/kg, 2 weeks after TBI) | loss of cortical tissue (lesion volume) ([1]; lower dose 16.25 mg/kg, 2 weeks after TBI) | beam walking test average transit time ([2]; higher dose 32.5 mg/kg i.p.) | beam walking test immobility time ([2]; higher dose 32.5 mg/kg i.p.) | beam walking test average transit time ([2]; lower dose 16.25 mg/kg i.p.) | beam walking test immobility time ([2]; lower dose 16.25 mg/kg i.p.) | IC50 [3] [µM] | cereblon binding (in words) [3] | Brain cortex IFN-γ levels (in words) [4] | IFN-γ in plasma (in words) [4] | lesion size ([1]; low dose 14.78 mg/kg, 2 weeks post-TBI, vs CMC) | beam walking test average time ([2]; high dose 29.57 mg/kg) | beam walking test, average time and contralateral foot falls (trend) ([2]; treated groups 14.78, 29.57 mg/kg)
1 | CC1(C)[C@@H]2CC[C@@]1(C)[C@@H](N1C(=O)c3c(F)c(F)c(F)c(F)c3C1=O)C2 [Compound 14, 4,5,6,7-Tetrafluoro-2-((1R,2S,4R)-1,7,7-trimethylbicyclo[2.2.1]heptan-2-yl) isoindoline-1,3-dione] | did not reach statistical significance | failed to reach statistical significance | reduce loss of cortical tissue | prevented the CCI-induced behavioral impairment | prevented the CCI-induced behavioral impairment | but not the average transit time deficit | effective in mitigating the immobility measure | 53.4 | did not bind cereblon | not impacted | proved able to reduce this rise | – | – | –
2 | O=C1c2c(F)c(F)c(F)c(F)c2C(=O)N1C1CC2CCC1C2 (stereo not drawn) [Compound 16, 2-Endo-(bicyclo[2.2.1]heptan-2-yl)-4,5,6,7-tetrafluoroisoindoline-1,3-dione] | – | – | – | – | – | – | – | > 100 | did not bind cereblon | not impacted | proved able to reduce this rise | – | – | –
3 | Nc1ccc(F)c2c1C(=S)N(C1CCC(=S)NC1=O)C2=O (stereo not drawn) [Compound 30, 4-amino-7-fluoro-2-(2-oxo-6-thioxopiperidin-3-yl)-3-thioxoisoindolin-1-one] | – | – | – | – | – | – | – | – | – | – | – | significant reduction of the lesion size | reached significant different | clear reducing trends
